Assays:
Assay in all cases: TR-FRET enzymatic activity assay against PI3K isoforms
Format in all cases: biochemical
PI3Kβ = PI3Kβ (Homo sapiens (Human), UniProt P42338); settings: for IC50: PI3Kβ, TR-FRET, 2×Km ATP, 30 minutes at 25° C.; for PI3Kγ/PI3Kβ ratio: ratio of IC50 values, selectivity for PI3Kβ over PI3Kγ
Excerpt: (§1) The compounds of formula (I) were characterized for their enzymatic activity against the PI3K isoforms. […] TR-FRET monitored the formation of 3,4,5-inositol triphosphate molecule that competed with fluorescently labeled PIP3 for binding to the GRP-1 pleckstrin homology domain protein.

PI3Kγ = PI3Kγ (Homo sapiens (Human), UniProt P48736); settings: 2×Km ATP, 30 minutes at 25° C.
Sequence of PI3Kγ (P48736 whole entry): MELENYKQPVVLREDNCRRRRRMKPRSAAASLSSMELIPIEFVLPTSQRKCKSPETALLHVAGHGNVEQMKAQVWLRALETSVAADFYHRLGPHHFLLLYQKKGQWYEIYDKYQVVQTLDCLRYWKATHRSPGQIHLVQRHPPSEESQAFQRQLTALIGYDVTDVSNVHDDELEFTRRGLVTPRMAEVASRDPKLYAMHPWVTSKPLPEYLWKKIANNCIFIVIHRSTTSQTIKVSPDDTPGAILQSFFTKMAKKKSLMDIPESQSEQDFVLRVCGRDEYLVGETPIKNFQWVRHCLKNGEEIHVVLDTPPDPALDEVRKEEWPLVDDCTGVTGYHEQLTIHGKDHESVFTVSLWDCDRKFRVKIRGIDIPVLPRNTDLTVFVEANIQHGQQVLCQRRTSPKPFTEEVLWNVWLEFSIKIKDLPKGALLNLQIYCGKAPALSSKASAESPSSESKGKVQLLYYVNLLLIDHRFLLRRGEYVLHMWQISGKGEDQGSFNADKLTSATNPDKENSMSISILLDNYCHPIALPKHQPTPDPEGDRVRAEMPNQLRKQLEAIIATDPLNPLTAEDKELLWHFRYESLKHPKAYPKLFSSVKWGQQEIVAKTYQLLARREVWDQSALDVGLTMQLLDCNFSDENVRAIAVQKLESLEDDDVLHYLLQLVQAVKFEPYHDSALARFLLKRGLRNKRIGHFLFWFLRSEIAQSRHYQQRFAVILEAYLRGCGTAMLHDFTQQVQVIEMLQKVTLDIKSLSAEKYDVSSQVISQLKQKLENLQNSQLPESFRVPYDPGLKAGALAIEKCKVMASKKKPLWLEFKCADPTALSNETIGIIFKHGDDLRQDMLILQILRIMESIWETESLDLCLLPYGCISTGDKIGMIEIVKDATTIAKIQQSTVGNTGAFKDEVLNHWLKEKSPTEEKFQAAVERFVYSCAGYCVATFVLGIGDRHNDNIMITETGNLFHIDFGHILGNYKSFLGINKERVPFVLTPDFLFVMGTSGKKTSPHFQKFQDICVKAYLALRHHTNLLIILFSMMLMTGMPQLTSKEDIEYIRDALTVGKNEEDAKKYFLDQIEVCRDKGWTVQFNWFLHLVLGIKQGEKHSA
Excerpt: as §1

PI3Kδ = PI3Kδ (Homo sapiens (Human), UniProt O00329); settings: 2×Km ATP, 30 minutes at 25° C.
Sequence of PI3Kδ (O00329 whole entry): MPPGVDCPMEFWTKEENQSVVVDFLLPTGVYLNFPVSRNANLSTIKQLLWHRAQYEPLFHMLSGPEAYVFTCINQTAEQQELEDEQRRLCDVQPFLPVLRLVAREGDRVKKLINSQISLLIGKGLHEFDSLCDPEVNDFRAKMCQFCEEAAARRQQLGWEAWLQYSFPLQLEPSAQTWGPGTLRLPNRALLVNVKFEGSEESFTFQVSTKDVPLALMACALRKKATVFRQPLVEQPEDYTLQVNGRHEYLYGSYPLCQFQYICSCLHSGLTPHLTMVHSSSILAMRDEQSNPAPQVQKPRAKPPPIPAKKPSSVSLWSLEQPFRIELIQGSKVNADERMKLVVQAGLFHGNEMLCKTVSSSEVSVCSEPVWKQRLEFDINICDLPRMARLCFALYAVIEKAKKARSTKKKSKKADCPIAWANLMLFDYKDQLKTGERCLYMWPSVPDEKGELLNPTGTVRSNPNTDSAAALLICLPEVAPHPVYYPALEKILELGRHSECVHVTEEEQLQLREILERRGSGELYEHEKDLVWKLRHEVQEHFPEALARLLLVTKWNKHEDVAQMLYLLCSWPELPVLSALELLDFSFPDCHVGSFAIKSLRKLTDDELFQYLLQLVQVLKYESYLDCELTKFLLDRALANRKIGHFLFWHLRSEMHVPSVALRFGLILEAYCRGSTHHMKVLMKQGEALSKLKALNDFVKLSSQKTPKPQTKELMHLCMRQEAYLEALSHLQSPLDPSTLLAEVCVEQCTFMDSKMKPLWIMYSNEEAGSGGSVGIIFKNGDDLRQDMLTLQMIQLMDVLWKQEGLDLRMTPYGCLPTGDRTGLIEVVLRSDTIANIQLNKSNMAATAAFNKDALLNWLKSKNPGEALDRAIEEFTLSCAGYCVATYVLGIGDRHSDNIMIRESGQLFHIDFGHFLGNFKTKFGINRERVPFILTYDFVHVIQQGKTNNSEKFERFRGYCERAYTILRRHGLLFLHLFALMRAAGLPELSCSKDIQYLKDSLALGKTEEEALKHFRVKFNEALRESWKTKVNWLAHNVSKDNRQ
Sequence of PI3Kδ (P27986 whole entry partner): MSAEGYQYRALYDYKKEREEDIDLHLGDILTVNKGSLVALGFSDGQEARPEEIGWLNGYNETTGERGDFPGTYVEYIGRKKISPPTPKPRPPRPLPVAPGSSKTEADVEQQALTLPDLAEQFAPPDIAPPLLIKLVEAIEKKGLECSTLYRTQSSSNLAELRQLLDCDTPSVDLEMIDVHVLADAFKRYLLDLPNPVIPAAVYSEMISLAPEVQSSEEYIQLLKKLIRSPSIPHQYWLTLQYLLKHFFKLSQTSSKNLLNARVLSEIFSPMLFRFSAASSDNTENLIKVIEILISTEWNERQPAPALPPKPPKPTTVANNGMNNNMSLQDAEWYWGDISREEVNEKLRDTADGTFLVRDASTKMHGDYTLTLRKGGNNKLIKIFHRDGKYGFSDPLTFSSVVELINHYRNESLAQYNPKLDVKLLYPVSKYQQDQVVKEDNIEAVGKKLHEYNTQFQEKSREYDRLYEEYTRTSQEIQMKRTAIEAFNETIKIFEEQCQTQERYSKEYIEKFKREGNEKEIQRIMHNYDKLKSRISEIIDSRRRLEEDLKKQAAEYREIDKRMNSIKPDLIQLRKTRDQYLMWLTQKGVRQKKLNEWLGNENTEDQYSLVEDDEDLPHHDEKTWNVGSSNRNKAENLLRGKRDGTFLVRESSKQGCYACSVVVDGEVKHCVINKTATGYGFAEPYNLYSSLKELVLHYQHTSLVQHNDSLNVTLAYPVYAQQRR
Excerpt: as §1

Sequence of PI3Kβ (P42338 whole entry, the tested form may be a part, canonical isoform): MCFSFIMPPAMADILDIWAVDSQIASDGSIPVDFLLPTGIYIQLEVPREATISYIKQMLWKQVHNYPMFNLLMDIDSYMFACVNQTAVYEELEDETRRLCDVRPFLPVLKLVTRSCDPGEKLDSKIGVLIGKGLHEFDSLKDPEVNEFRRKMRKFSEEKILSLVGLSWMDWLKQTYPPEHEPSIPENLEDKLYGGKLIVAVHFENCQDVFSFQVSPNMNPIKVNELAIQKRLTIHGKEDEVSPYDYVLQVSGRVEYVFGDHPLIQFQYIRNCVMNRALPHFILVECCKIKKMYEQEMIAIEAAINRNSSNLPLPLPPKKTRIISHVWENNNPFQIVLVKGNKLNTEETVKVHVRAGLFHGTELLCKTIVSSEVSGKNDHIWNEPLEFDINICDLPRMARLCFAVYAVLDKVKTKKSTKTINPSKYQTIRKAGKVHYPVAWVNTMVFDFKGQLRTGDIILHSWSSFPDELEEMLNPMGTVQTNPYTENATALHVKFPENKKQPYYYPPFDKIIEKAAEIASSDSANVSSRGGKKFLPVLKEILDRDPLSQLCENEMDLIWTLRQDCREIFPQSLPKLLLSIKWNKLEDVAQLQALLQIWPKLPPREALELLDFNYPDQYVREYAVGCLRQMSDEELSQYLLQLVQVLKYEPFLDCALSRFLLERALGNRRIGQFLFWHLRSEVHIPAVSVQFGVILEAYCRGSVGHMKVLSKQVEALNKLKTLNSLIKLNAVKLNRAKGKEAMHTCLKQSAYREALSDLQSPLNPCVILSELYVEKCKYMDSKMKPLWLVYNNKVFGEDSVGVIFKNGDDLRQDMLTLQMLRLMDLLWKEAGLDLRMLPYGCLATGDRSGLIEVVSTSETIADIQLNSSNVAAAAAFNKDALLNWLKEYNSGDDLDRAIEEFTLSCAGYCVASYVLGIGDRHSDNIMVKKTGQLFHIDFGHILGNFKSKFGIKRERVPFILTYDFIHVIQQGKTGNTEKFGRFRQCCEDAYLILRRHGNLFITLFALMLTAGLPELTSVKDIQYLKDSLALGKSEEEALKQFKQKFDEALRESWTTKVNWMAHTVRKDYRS
Sequence of PI3Kβ (P27986 whole entry partner, the tested form may be a part, canonical isoform): as the sequence (P27986 whole entry partner) above

SMILES | IC50 (PI3Kβ) [nM] | IC50 (PI3Kγ) [nM] | IC50 (PI3Kδ) [nM] | PI3Kγ/PI3Kβ ratio (PI3Kβ) | PI3Kγ/PI3Kβ ratio (PI3Kβ; listed as (S)-2,4-diamino-6-(1-(5-chloro-4-oxo-3-phenyl-3,4-dihydroquinazolin-2-yl)ethyl))
N#Cc1c(N)nc(N)nc1N[C@@H](c1ccccc1)c1nc2cccc(Cl)c2c(=O)n1CCCN [Compound 1, (S)-2,4-diamino-6-(((3-(3-aminopropyl)-5-chloro-4-oxo-3,4-dihydroquinazolin-2-yl)(phenyl)methyl)amino)pyrimidine-5-carbonitrile] | 27 | ≥ 10000 | 9 | – | –
C[C@H](Nc1ncnc2scnc12)c1nc2cccc(Cl)c2c(=O)n1CCC(C)(C)N [Compound 2, (S)-3-(3-amino-3-methylbutyl)-5-chloro-2-(1-(thiazolo[5,4-d]pyrimidin-7-ylamino)ethyl)quinazolin-4(3H)-one] | 1500 | ≥ 10000 | 27 | – | –
C[C@H](Nc1ncnc(N)c1C#N)c1nc2cccc(Cl)c2c(=O)n1CCC(C)(C)N [Compound 3, (S)-4-amino-6-((1-(3-(3-amino-3-methylbutyl)-5-chloro-4-oxo-3,4-dihydroquinazolin-2-yl)ethyl)amino)pyrimidine-5-carbonitrile] | 1300 | ≥ 10000 | 15 | – | –
C[C@H](Nc1nc(N)nc(N)c1C#N)c1nc2cccc(Cl)c2c(=O)n1CCCNc1ncccn1 [Compound 4, (S)-2,4-diamino-6-((1-(5-chloro-4-oxo-3-(3-(pyrimidin-2-ylamino)propyl)-3,4-dihydroquinazolin-2-yl)ethyl)amino)pyrimidine-5-carbonitrile] | 420 | 660 | 5 | – | –
C[C@H](Nc1nc(N)nc(N)c1C#N)c1nc2cccc(Cl)c2c(=O)n1CCCNc1ccccn1 [Compound 5, (S)-2,4-diamino-6-((1-(5-chloro-4-oxo-3-(3-(pyridin-2-ylamino)propyl)-3,4-dihydroquinazolin-2-yl)ethyl)amino)pyrimidine-5-carbonitrile] | 930 | 2200 | 5 | – | –
C[C@H](Nc1ncnc(N)c1C#N)c1nc2cccc(Cl)c2c(=O)n1CCCNCc1ccccc1 [Compound 6, (S)-4-amino-6-((1-(3-(3-(benzylamino)propyl)-5-chloro-4-oxo-3,4-dihydroquinazolin-2-yl)ethyl)amino)pyrimidine-5-carbonitrile] | 250 | ≥ 10000 | 9 | – | –
C[C@H](Nc1nc(N)nc(N)c1Cl)c1nc2cccc(Cl)c2c(=O)n1CCCN [Compound 7, (S)-3-(3-aminopropyl)-5-chloro-2-(1-((2,6-diamino-5-chloropyrimidin-4-yl)amino)ethyl)quinazolin-4(3H)-one] | 140 | ≥ 10000 | 35 | – | –
C[C@H](Nc1nc(N)nc(N)c1C#N)c1nc2cccc(Cl)c2c(=O)n1CCCNCc1ccccc1 [Compound 8, (S)-2,4-diamino-6-((1-(3-(3-(benzylamino)propyl)-5-chloro-4-oxo-3,4-dihydroquinazolin-2-yl)ethyl)amino)pyrimidine-5-carbonitrile] | 68 | 1700 | 5 | – | –
C[C@H](Nc1nc(N)nc(N)c1C#N)c1nc2cccc(Cl)c2c(=O)n1N(CCN)Cc1ccccc1 [Compound 9, (S)-2,4-diamino-6-((1-(3-((2-aminoethyl)(benzyl)amino)-5-chloro-4-oxo-3,4-dihydroquinazolin-2-yl)ethyl)amino)pyrimidine-5-carbonitrile] | 170 | ≥ 10000 | 77 | – | –
C[C@H](Nc1nc(N)nc(N)c1C#N)c1nc2cccc(Cl)c2c(=O)n1N(CCN)Cc1ccccc1 [Compound 10, (S)-2,4-diamino-6-((1-(3-((2-aminoethyl)(benzyl)amino)-5-chloro-4-oxo-3,4-dihydroquinazolin-2-yl)ethyl)amino)pyrimidine-5-carbonitrile] | 840 | ≥ 10000 | 480 | – | –
C[C@H](Nc1ncnn2ccnc12)c1nc2cccc(Cl)c2c(=O)n1N(C)CCN [Compound 11, (S)-3-((2-aminoethyl)(methyl)amino)-5-chloro-2-(1-(imidazo[2,1-f][1,2,4]triazin-4-ylamino)ethyl)quinazolin-4(3H)-one] | 93 | ≥ 10000 | 37 | – | –
C[C@H](Nc1ncnc(N)c1C#N)c1nc2cccc(Cl)c2c(=O)n1N(CCN)Cc1ccccc1 [Compound 12, (S)-4-amino-6-((1-(3-((2-aminoethyl)(benzyl)amino)-5-chloro-4-oxo-3,4-dihydroquinazolin-2-yl)ethyl)amino)pyrimidine-5-carbonitrile] | 300 | ≥ 10000 | 52 | – | –

The next lines start with the values.

IC50 (PI3Kβ) [nM] | IC50 (PI3Kγ) [nM] | IC50 (PI3Kδ) [nM] | PI3Kγ/PI3Kβ ratio (PI3Kβ) | PI3Kγ/PI3Kβ ratio (PI3Kβ; listed as (S)-2,4-diamino-6-(1-(5-chloro-4-oxo-3-phenyl-3,4-dihydroquinazolin-2-yl)ethyl)) | SMILES
79 | 1300 | 3 | – | – | C[C@H](Nc1nc(N)nc(N)c1C#N)c1nc2cccc(Cl)c2c(=O)n1CC1CCCNC1 (stereo in doubt) [Compound 123, 2,4-diamino-6-(((S)-1-(5-chloro-4-oxo-3-((R)-piperidin-3-ylmethyl)-3,4-dihydroquinazolin-2-yl)ethyl)amino)pyrimidine-5-carbonitrile]
88 | 3200 | 2 | – | – | C[C@H](Nc1nc(N)nc(N)c1C#N)c1nc2cccc(Cl)c2c(=O)n1CC1CCCNC1 (stereo in doubt) [Compound 124, 2,4-diamino-6-(((S)-1-(5-chloro-4-oxo-3-((S)-piperidin-3-ylmethyl)-3,4-dihydroquinazolin-2-yl)ethyl)amino)pyrimidine-5-carbonitrile]
6800 | ≥ 10000 | 3300 | – | – | C[C@H](Nc1ncnc(N)c1C#N)c1nc2cccc(Cl)c2c(=O)n1N(CCN)Cc1ccccc1 [Compound 13, (S)-4-amino-6-((1-(3-((2-aminoethyl)(benzyl)amino)-5-chloro-4-oxo-3,4-dihydroquinazolin-2-yl)ethyl)amino)pyrimidine-5-carbonitrile]
9 | 1900 | 2 | – | – | C[C@H](Nc1nc(N)nc(N)c1C#N)c1nc2cccc(Cl)c2c(=O)n1N(C)CCN [Compound 14, (S)-2,4-diamino-6-((1-(3-((2-aminoethyl)(methyl)amino)-5-chloro-4-oxo-3,4-dihydroquinazolin-2-yl)ethyl)amino)pyrimidine-5-carbonitrile]
2 | 1700 | 3 | – | – | C[C@H](Nc1nc(N)nc(N)c1C#N)c1nc2cccc(Cl)c2c(=O)n1N(C)CCN [Compound 15, (S)-2,4-diamino-6-((1-(3-((2-aminoethyl)(methyl)amino)-5-chloro-4-oxo-3,4-dihydroquinazolin-2-yl)ethyl)amino)pyrimidine-5-carbonitrile]
42 | ≥ 10000 | 7 | – | – | C[C@H](Nc1ncnc(N)c1C#N)c1nc2cccc(Cl)c2c(=O)n1N(C)CCN [Compound 16, (S)-4-amino-6-((1-(3-((2-aminoethyl)(methyl)amino)-5-chloro-4-oxo-3,4-dihydroquinazolin-2-yl)ethyl)amino)pyrimidine-5-carbonitrile]
69 | ≥ 10000 | 11 | – | – | C[C@H](Nc1ncnc(N)c1C#N)c1nc2cccc(Cl)c2c(=O)n1N(C)CCN [Compound 17, (S)-4-amino-6-((1-(3-((2-aminoethyl)(methyl)amino)-5-chloro-4-oxo-3,4-dihydroquinazolin-2-yl)ethyl)amino)pyrimidine-5-carbonitrile]
360 | ≥ 10000 | 370 | – | – | C[C@H](NC(=O)c1nccnc1N)c1nc2cccc(Cl)c2c(=O)n1CCCN [Compound 18, (S)-3-amino-N-(1-(3-(3-aminopropyl)-5-chloro-4-oxo-3,4-dihydroquinazolin-2-yl)ethyl)pyrazine-2-carboxamide]
1300 | ≥ 10000 | 14 | – | – | C[C@H](Nc1ncnc2[nH]cnc12)c1nc2cccc(Cl)c2c(=O)n1CCCN1CCOCC1 [Compound 19, (S)-2-(1-((9H-purin-6-yl)amino)ethyl)-5-chloro-3-(3-morpholinopropyl)quinazolin-4(3H)-one]
90 | ≥ 10000 | 25 | – | – | Cc1ncnc(N[C@@H](C)c2nc3cccc(Cl)c3c(=O)n2CCCN)c1C#N [Compound 23, (S)-4-((1-(3-(3-aminopropyl)-5-chloro-4-oxo-3,4-dihydroquinazolin-2-yl)ethyl)amino)-6-methylpyrimidine-5-carbonitrile]
51 | ≥ 10000 | 6 | – | – | CC(CCN)n1c([C@H](C)Nc2ncnc(N)c2C#N)nc2cccc(Cl)c2c1=O (stereo partly drawn) [Compound 24, 4-amino-6-(((1S)-1-(3-(4-aminobutan-2-yl)-5-chloro-4-oxo-3,4-dihydroquinazolin-2-yl)ethyl)amino)pyrimidine-5-carbonitrile]
1300 | ≥ 10000 | 100 | – | – | CC(CN)n1c([C@H](C)Nc2ncnc(N)c2C#N)nc2cccc(Cl)c2c1=O (stereo partly drawn) [Compound 25, 4-amino-6-(((1S)-1-(3-(1-aminopropan-2-yl)-5-chloro-4-oxo-3,4-dihydroquinazolin-2-yl)ethyl)amino)pyrimidine-5-carbonitrile]
740 | ≥ 10000 | 150 | – | – | C[C@H](Nc1ncnc(N)c1C#N)c1nc2cccc(Cl)c2c(=O)n1CCN [Compound 26, (S)-4-amino-6-((1-(3-(2-aminoethyl)-5-chloro-4-oxo-3,4-dihydroquinazolin-2-yl)ethyl)amino)pyrimidine-5-carbonitrile]
– | – | – | 0.6 | less than 1 | C[C@H](Nc1nc(N)nc(N)c1C#N)c1nc2cccc(Cl)c2c(=O)n1-c1ccccc1 [Compound X, (S)-2,4-diamino-6-((1-(5-chloro-4-oxo-3-phenyl-3,4-dihydroquinazolin-2-yl)ethyl)amino)pyrimidine-5-carbonitrile, reference compound]

From patent US11021467B2, “Phosphatidylinositol 3-kinase inhibitors” (Gilead Sciences, Inc., priority 2014, dated 2021)
